Assay results: patent US20240285688A1, “Extensive whey protein hydrolysate with tolerogenic peptides” (N.V. Nutricia, priority 2019, published 2024)
Peptide text beside a SMILES is read from it.

Assay: Presence of tolerogenic betalactoglobulin peptides in feed, retentate and permeate of membrane ultrafiltration (micro LC-MS ESI MS2)
Assay type: physicochemical
Conditions: Example 3: urea (8 M) added after hydrolysis and before ultrafiltration
Method: In a Multifors reactor (Infors HT) 500 gram of whey protein powder (WPC83, Arla Foods, with about 80% whey protein) was dissolved in water at a final concentration of about 4 wt % at a temperature of about 75° C., giving a protein concentration of about 3.2 wt %. After dissolving the mixture was cooled to 58° C. and the pH was adjusted to neutral (pH 7-8). Proteolytic enzymes were added (Trypsin, Neova Technologies Inc) to a concentration of 33 mg/100 g solution and hydrolysis took place for about 105 min under continuous stirring. During hydrolysis the pH was kept constant. After hydrolysis the mixture was quickly cooled to 4° C.
Next the mixture of whey protein hydrolysate and proteolytic enzymes was filtrated. 200 ml of the mixture (the feed) was filtrated for 20 minutes on a MMS Triple System membrane filtration unit (MMS AG Membrane Systems) provided with an ultrafiltration membrane from Koch (Koch: HFK-131, a flat sheet polyethersulfone ultrafiltration membrane with a molecular weight cut off of 10 kDa) under a pressure of 8 bars. A one-layer filtration setup was used and the retentate was circulated during filtration. Each membrane was used only once to promote reproducibility. The filtration cooling system was set to 15° C. The permeate was weighted, MMS filtration software was used for the registering of the permeate throughput. Samples were taken of the mixture before membrane filtration (the feed), and of the permeate and retentate after the membrane filtration step. About 93% of permeate (wt % of total feed) was produced comprising about 85 wt % of peptides (wt % of the peptides in the feed). Samples were stored at −50° C. for further analysis.
The presence of tolerogenic betalactoglobulin peptides in the samples was analyzed according to Gouw et al., 2018, Clin. Exp. Allergy 48:[…], with the modification that instead of nanoLC-ESI MS2, micro LC-MS ESI MS2 was used. The presence of 5 specific peptides was tested (region overlapping with the 13-48 AA acid region of betalactoglobulin in bold):
The process of example 1 was repeated. The only difference was that Citrem (Grinsted® Citrem, DuPont) was added at an amount of about 3.6 gram before the pH adjustment and the addition of the proteolytic enzymes. […]
The process of example 2a was repeated, the only difference being that instead of the emulsifier, 51 gram of urea (source Merck) was dissolved per 100 g water (8 M) and added after the hydrolysis step and before ultrafiltration. […] All peptides were detected in the retentate and feed, and peptides 1, 3, 4 and 5 of example 1 (i.e. SEQ ID NOs 66, 68, 69 and 70 with X=L) were detected in the permeate, in an amount of about 1-10 wt. % of the concentration of these peptides in the feed. […]

Presence of the tolerogenic peptides in the permeate, detected:
CC[C@H](C)[C@H](NC(=O)[C@H](CC(=O)O)NC(=O)[C@H](CC(C)C)NC(=O)CNC(=O)[C@H](CCCCN)NC(=O)[C@H](CCSC)NC(=O)[C@@H](NC(=O)[C@H](CCC(N)=O)NC(=O)[C@@H](NC(=O)[C@@H](NC(=O)[C@@H](NC(=O)[C@@H](N)CC(C)C)[C@@H](C)CC)C(C)C)[C@@H](C)O)[C@@H](C)O)C(=O)N[C@@H](CCC(N)=O)C(=O)N[C@@H](CCCCN)C(=O)N[C@H](C(=O)N[C@@H](C)C(=O)NCC(=O)N[C@H](C(=O)N[C@@H](Cc1c[nH]c2ccccc12)C(=O)N[C@@H](Cc1ccc(O)cc1)C(=O)N[C@@H](CO)C(=O)N[C@@H](CC(C)C)C(=O)N[C@@H](C)C(=O)N[C@@H](CCSC)C(=O)N[C@@H](C)C(=O)N[C@@H](C)C(=O)N[C@@H](CO)C(=O)O)[C@@H](C)O)C(C)C [Peptide 1] (H-LIVTQTMKGLDIQKVAGTWYSLAMAAS-OH; N-terminus and C-terminus assumed), CC[C@H](C)[C@H](NC(=O)[C@H](CC(=O)O)NC(=O)[C@H](CC(C)C)NC(=O)CNC(=O)[C@H](CCCCN)NC(=O)[C@H](CCSC)NC(=O)[C@@H](NC(=O)[C@H](CCC(N)=O)NC(=O)[C@@H](NC(=O)[C@@H](NC(=O)[C@@H](NC(=O)[C@@H](N)CC(C)C)[C@@H](C)CC)C(C)C)[C@@H](C)O)[C@@H](C)O)C(=O)N[C@@H](CCC(N)=O)C(=O)N[C@@H](CCCCN)C(=O)N[C@H](C(=O)N[C@@H](C)C(=O)NCC(=O)N[C@H](C(=O)N[C@@H](Cc1c[nH]c2ccccc12)C(=O)N[C@@H](Cc1ccc(O)cc1)C(=O)N[C@@H](CO)C(=O)N[C@@H](CC(C)C)C(=O)N[C@@H](C)C(=O)N[C@@H](CCSC)C(=O)N[C@@H](C)C(=O)N[C@@H](C)C(=O)N[C@@H](CO)C(=O)N[C@@H](CC(=O)O)C(=O)N[C@H](C(=O)N[C@@H](CO)C(=O)N[C@@H](CC(C)C)C(=O)N[C@@H](CC(C)C)C(=O)O)[C@@H](C)CC)[C@@H](C)O)C(C)C [Peptide 5] (H-LIVTQTMKGLDIQKVAGTWYSLAMAASDISLL-OH; N-terminus and C-terminus assumed), CC[C@H](C)[C@H](NC(=O)[C@H](CC(=O)O)NC(=O)[C@H](CC(C)C)NC(=O)CNC(=O)[C@H](CCCCN)NC(=O)[C@H](CCSC)NC(=O)[C@@H](N)[C@@H](C)O)C(=O)N[C@@H](CCC(N)=O)C(=O)N[C@@H](CCCCN)C(=O)N[C@H](C(=O)N[C@@H](C)C(=O)NCC(=O)N[C@H](C(=O)N[C@@H](Cc1c[nH]c2ccccc12)C(=O)N[C@@H](Cc1ccc(O)cc1)C(=O)N[C@@H](CO)C(=O)N[C@@H](CC(C)C)C(=O)N[C@@H](C)C(=O)N[C@@H](CCSC)C(=O)N[C@@H](C)C(=O)N[C@@H](C)C(=O)N[C@@H](CO)C(=O)N[C@@H](CC(=O)O)C(=O)N[C@H](C(=O)N[C@@H](CO)C(=O)N[C@@H](CC(C)C)C(=O)N[C@@H](CC(C)C)C(=O)O)[C@@H](C)CC)[C@@H](C)O)C(C)C [Peptide 4] (H-TMKGLDIQKVAGTWYSLAMAASDISLL-OH; N-terminus and C-terminus assumed), CC[C@H](C)[C@H](NC(=O)[C@H](CC(=O)O)NC(=O)[C@H](CC(C)C)NC(=O)CNC(=O)[C@H](CCCCN)NC(=O)[C@H](CCSC)NC(=O)[C@@H](N)[C@@H](C)O)C(=O)N[C@@H](CCC(N)=O)C(=O)N[C@@H](CCCCN)C(=O)N[C@H](C(=O)N[C@@H](C)C(=O)NCC(=O)N[C@H](C(=O)N[C@@H](Cc1c[nH]c2ccccc12)C(=O)N[C@@H](Cc1ccc(O)cc1)C(=O)N[C@@H](CO)C(=O)N[C@@H](CC(C)C)C(=O)N[C@@H](C)C(=O)N[C@@H](CCSC)C(=O)N[C@@H](C)C(=O)N[C@@H](C)C(=O)N[C@@H](CO)C(=O)N[C@@H](CC(=O)O)C(=O)N[C@H](C(=O)N[C@@H](CO)C(=O)N[C@@H](CC(C)C)C(=O)N[C@@H](CC(C)C)C(=O)N[C@@H](CC(=O)O)C(=O)N[C@@H](C)C(=O)N[C@@H](CCC(N)=O)C(=O)O)[C@@H](C)CC)[C@@H](C)O)C(C)C [Peptide 3] (H-TMKGLDIQKVAGTWYSLAMAASDISLLDAQ-OH; N-terminus and C-terminus assumed)
